Laboratory results published in patent publication US20220135591A1, “HETEROCYCLIC COMPOUNDS AS INHIBITORS OF MONOACYLGLYCEROL LIPASE (MAGL)” (Hoffmann-La Roche Inc., priority 2019, published 2022).

Biological target: T1, MAGL (Homo sapiens, UniProt Q99685)
T1 sequence (Q99685 1-303): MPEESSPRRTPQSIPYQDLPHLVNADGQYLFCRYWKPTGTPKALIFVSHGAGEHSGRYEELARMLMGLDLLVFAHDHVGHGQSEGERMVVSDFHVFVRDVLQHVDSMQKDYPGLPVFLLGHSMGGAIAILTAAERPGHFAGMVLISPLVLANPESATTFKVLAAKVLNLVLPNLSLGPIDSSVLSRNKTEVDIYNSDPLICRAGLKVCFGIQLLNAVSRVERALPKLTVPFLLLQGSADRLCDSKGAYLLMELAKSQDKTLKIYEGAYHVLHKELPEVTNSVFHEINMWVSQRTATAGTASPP
Experiment: 2-AG assay: MAGL inhibitory activity by hydrolysis of 2-arachidonoylglycerol to arachidonic acid, mass spectrometry
Type: biochemical
Conditions: 2-AG assay (values marked [b])
Outline: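 Hydrolysis of 8 μM 2-arachidonoylglycerol by […] was run for 30 min at RT after a 15 min compound preincubation, in Tris/EDTA/Tween buffer. Test compounds spanned […]. The product was measured by online SPE-MS/MS (transitions 303.1→259.1 and 311.1→267.0), and activity was derived from the arachidonic acid/d8-arachidonic acid signal ratio.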

Compound	IC50
Cc1cc(C(=O)N2CCN(c3nc4nc(Cl)ccc4o3)CC2)cnc1OCC1CCO1 (stereo not drawn) [Example 168, (4-(5-chlorooxazolo[4,5-b]pyridin-2-yl)piperazin-1-yl)(5-methyl-6-(oxetan-2-ylmethoxy)pyridin-3-yl)methanone]	1750 nM
COc1cc(C(=O)N2CCN(c3nc4nc(C)ccc4o3)CC2)cnc1OCC1(C(F)(F)F)CC1 [Example 169, [5-methoxy-6-[[1-(trifluoromethyl)cyclopropyl]methoxy]-3-pyridyl]-[4-(5-methyloxazolo[4,5-b]pyridin-2-yl)piperazin-1-yl]methanone]	138 nM
Cc1cc(C(=O)N2CCN(c3nc4nc(Cl)ccc4o3)CC2)cnc1OCC1CCCCO1 (stereo not drawn) [Example 170, (4-(5-chlorooxazolo[4,5-b]pyridin-2-yl)piperazin-1-yl)(5-methyl-6-((tetrahydro-2H-pyran-2-yl)methoxy)pyridin-3-yl)methanone]	57 nM
COC1(COc2ncc(C(=O)N3CCN(c4nc5nc(Cl)ccc5o4)CC3)cc2C)CC1 [Example 171, (4-(5-chlorooxazolo[4,5-b]pyridin-2-yl)piperazin-1-yl)(6-((1-methoxycyclopropyl)methoxy)-5-methylpyridin-3-yl)methanone]	188 nM
Cc1cc(C(=O)N2CCN(c3nc4nc(Cl)ccc4o3)CC2)cnc1OC[C@H](F)CF [Example 172, (S)-(4-(5-chlorooxazolo[4,5-b]pyridin-2-yl)piperazin-1-yl)(6-(2,3-difluoropropoxy)-5-methylpyridin-3-yl)methanone]	978 nM
Cc1cc(C(=O)N2CCN(c3nc4nc(Cl)ccc4o3)CC2)cnc1OCCC(F)(F)F [Example 173, (4-(5-chlorooxazolo[4,5-b]pyridin-2-yl)piperazin-1-yl)(5-methyl-6-(3,3,3-trifluoropropoxy)pyridin-3-yl)methanone]	135 nM
Cc1cc(C(=O)N2CCN(c3nc4nc(Cl)ccc4o3)CC2)cnc1OC[C@@H](F)CF [Example 174, (R)-(4-(5-chlorooxazolo[4,5-b]pyridin-2-yl)piperazin-1-yl)(6-(2,3-difluoropropoxy)-5-methylpyridin-3-yl)methanone]	706 nM
Cc1cc(C(=O)N2CCN(c3nc4nc(Cl)ccc4o3)CC2)cnc1-c1cnn(C(C)(C)C)c1 [Example 190, [6-(1-tert-butylpyrazol-4-yl)-5-methylpyridin-3-yl]-[4-(5-chloro-[1,3]oxazolo[4,5-b]pyridin-2-yl)piperazin-1-yl]methanone]	46 nM
Cc1ccc2oc(N3CCN(C(=O)c4cnc(-c5cnn(C(C)(C)C)c5)c(C)c4)CC3)nc2n1 [Example 191, [6-(1-tert-butylpyrazol-4-yl)-5-methylpyridin-3-yl]-[4-(5-methyl-[1,3]oxazolo[4,5-b]pyridin-2-yl)piperazin-1-yl]methanone]	98 nM
Cc1cc(C(=O)N2CCN(c3nc4nc(Cl)ccc4o3)CC2)ccc1-c1cn(CC(C)(C)C)nn1 [Example 231, (4-(5-chlorooxazolo[4,5-b]pyridin-2-yl)piperazin-1-yl)(3-methyl-4-(1-neopentyl-1H-1,2,3-triazol-4-yl)phenyl)methanone]	4 nM
Cc1cc(C(=O)N2CCN(c3nc4nc(Cl)ccc4o3)CC2)ccc1-c1cnn(CC(C)(C)C)n1 [Example 232, (4-(5-chlorooxazolo[4,5-b]pyridin-2-yl)piperazin-1-yl)(3-methyl-4-(2-neopentyl-2H-1,2,3-triazol-4-yl)phenyl)methanone]	1 nM
CC(C)(C)Cn1cc(-c2ccc(C(=O)N3CCN(c4nc5nc(Cl)ccc5o4)CC3)cc2C#N)nn1 [Example 233, 5-(4-(5-chlorooxazolo[4,5-b]pyridin-2-yl)piperazine-1-carbonyl)-2-(1-neopentyl-1H-1,2,3-triazol-4-yl)benzonitrile]	20 nM
CC(C)(C)Cn1ncc(-c2ccc(C(=O)N3CCN(c4nc5nc(Cl)ccc5o4)CC3)cc2C#N)n1 [Example 234, 5-(4-(5-chlorooxazolo[4,5-b]pyridin-2-yl)piperazine-1-carbonyl)-2-(2-neopentyl-2H-1,2,3-triazol-4-yl)benzonitrile]	10 nM
Cc1ccc2oc(N3CCN(C(=O)c4ccc(-c5cn(CC(C)(C)C)nn5)c(C#N)c4)CC3)nc2n1 [Example 235, 5-(4-(5-methyloxazolo[4,5-b]pyridin-2-yl)piperazine-1-carbonyl)-2-(1-neopentyl-1H-1,2,3-triazol-4-yl)benzonitrile]	104 nM
Cc1ccc2oc(N3CCN(C(=O)c4ccc(-c5cnn(CC(C)(C)C)n5)c(C#N)c4)CC3)nc2n1 [Example 236, 5-(4-(5-methyloxazolo[4,5-b]pyridin-2-yl)piperazine-1-carbonyl)-2-(2-neopentyl-2H-1,2,3-triazol-4-yl)benzonitrile]	33 nM
COc1cc(C(=O)N2CCN(c3nc4nc(Cl)ccc4o3)CC2)ccc1-c1cn(CC(C)(C)C)nn1 [Example 237, (4-(5-chlorooxazolo[4,5-b]pyridin-2-yl)piperazin-1-yl)(3-methoxy-4-(1-neopentyl-1H-1,2,3-triazol-4-yl)phenyl)methanone]	7 nM
COc1cc(C(=O)N2CCN(c3nc4nc(Cl)ccc4o3)CC2)ccc1-c1cnn(CC(C)(C)C)n1 [Example 238, (4-(5-chlorooxazolo[4,5-b]pyridin-2-yl)piperazin-1-yl)(3-methoxy-4-(2-neopentyl-2H-1,2,3-triazol-4-yl)phenyl)methanone]	1 nM
COc1cc(C(=O)N2CCN(c3nc4nc(C)ccc4o3)CC2)ccc1-c1cn(CC(C)(C)C)nn1 [Example 239, (3-methoxy-4-(1-neopentyl-1H-1,2,3-triazol-4-yl)phenyl)(4-(5-methyloxazolo[4,5-b]pyridin-2-yl)piperazin-1-yl)methanone]	13 nM
COc1cc(C(=O)N2CCN(c3nc4nc(C)ccc4o3)CC2)ccc1-c1cnn(CC(C)(C)C)n1 [Example 240, (3-methoxy-4-(2-neopentyl-2H-1,2,3-triazol-4-yl)phenyl)(4-(5-methyloxazolo[4,5-b]pyridin-2-yl)piperazin-1-yl)methanone]	2 nM
CC(C)(C)Cn1cc(-c2ncc(C(=O)N3CCN(c4nc5nc(Cl)ccc5o4)CC3)cc2F)nn1 [Example 241, (4-(5-chlorooxazolo[4,5-b]pyridin-2-yl)piperazin-1-yl)(5-fluoro-6-(1-neopentyl-1H-1,2,3-triazol-4-yl)pyridin-3-yl)methanone]	27 nM
CC(C)(C)Cn1nncc1-c1ncc(C(=O)N2CCN(c3nc4nc(Cl)ccc4o3)CC2)cc1F [Example 242, (4-(5-chlorooxazolo[4,5-b]pyridin-2-yl)piperazin-1-yl)(5-fluoro-6-(1-neopentyl-1H-1,2,3-triazol-5-yl)pyridin-3-yl)methanone]	8410 nM
CC(C)(C)Cn1ncc(-c2ncc(C(=O)N3CCN(c4nc5nc(Cl)ccc5o4)CC3)cc2F)n1 [Example 243, (4-(5-chlorooxazolo[4,5-b]pyridin-2-yl)piperazin-1-yl)(5-fluoro-6-(2-neopentyl-2H-1,2,3-triazol-4-yl)pyridin-3-yl)methanone]	25 nM
Cc1ccc2oc(N3CCN(C(=O)c4cnc(-c5cn(CC(C)(C)C)nn5)c(F)c4)CC3)nc2n1 [Example 244, (5-fluoro-6-(1-neopentyl-1H-1,2,3-triazol-4-yl)pyridin-3-yl)(4-(5-methyloxazolo[4,5-b]pyridin-2-yl)piperazin-1-yl)methanone]	50 nM
Cc1ccc2oc(N3CCN(C(=O)c4cnc(-c5cnn(CC(C)(C)C)n5)c(F)c4)CC3)nc2n1 [Example 245, (5-fluoro-6-(2-neopentyl-2H-1,2,3-triazol-4-yl)pyridin-3-yl)(4-(5-methyloxazolo[4,5-b]pyridin-2-yl)piperazin-1-yl)methanone]	57 nM
Cc1ccc2oc(N3CCN(C(=O)c4cnc(-c5cnnn5CC(C)(C)C)c(F)c4)CC3)nc2n1 [Example 246, (5-fluoro-6-(1-neopentyl-1H-1,2,3-triazol-5-yl)pyridin-3-yl)(4-(5-methyloxazolo[4,5-b]pyridin-2-yl)piperazin-1-yl)methanone]	1300 nM
Cc1cc(C(=O)N2CCN(c3nc4nc(Cl)ccc4o3)CC2)cnc1-c1cnn(CC(C)(C)C)c1 [Example 247, [4-(5-chloro-[1,3]oxazolo[4,5-b]pyridin-2-yl)piperazin-1-yl]-[6-[1-(2,2-dimethylpropyl)pyrazol-4-yl]-5-methylpyridin-3-yl]methanone]	7 nM
Cc1ccc2oc(N3CCN(C(=O)c4cnc(-c5cnn(CC(C)(C)C)c5)c(C)c4)CC3)nc2n1 [Example 248, [6-[1-(2,2-dimethylpropyl)pyrazol-4-yl]-5-methylpyridin-3-yl]-[4-(5-methyl-[1,3]oxazolo[4,5-b]pyridin-2-yl)piperazin-1-yl]methanone]	14 nM
O=C(N1CCN(c2nc3nc(Cl)ccc3o2)CC1)N1CC(C#Cc2c(Cl)cccc2Cl)C1 [Example 249, (4-(5-chlorooxazolo[4,5-b]pyridin-2-yl)piperazin-1-yl)(3-((2,6-dichlorophenyl)ethynyl)azetidin-1-yl)methanone]	22 nM
O=C(N1CCN(c2nc3nc(Cl)ccc3o2)CC1)N1CC(C#Cc2ccc(F)cc2Cl)C1 [Example 250, [3-[2-(2-chloro-4-fluorophenyl)ethynyl]azetidin-1-yl]-[4-(5-chloro-[1,3]oxazolo[4,5-b]pyridin-2-yl)piperazin-1-yl]methanone]	25 nM
Cc1ccc2oc(N3CCN(C(=O)N4CC(COc5ccc(F)cc5Cl)C4)CC3)nc2n1 [Example 252, [3-[(2-chloro-4-fluorophenoxy)methyl]azetidin-1-yl]-[4-(5-methyl-[1,3]oxazolo[4,5-b]pyridin-2-yl)piperazin-1-yl]methanone]	1240 nM
